Source: publication PMC9933715 (Antimicrobial Agents and Chemotherapy, 2023)
Where two headings read alike, the source gives them in different places.

Legend:
Huh7.5 cells = assay: Cell viability, CellTiter-Glo luminescent assay; conditions: for Cell viability (fold DMSO) Mean: deconvolution screen, singletons, uninfected Huh7.5
[1] = system: DENV-R2A (Rluc-expressing DENV, serotype 2 strain 16681); assay: microbe, parasite or virus in culture; assay type: cell-based, Dengue virus; conditions: for activity at 50 µM: Dengue virus, Huh7.5, 48 h; for antiviral activity against DENV-R2A (SAR, in words): NPP3C analogues, 50 μM
[2] = system: ZIKV-R2A (strain FSS13025); assay: microbe, parasite or virus in culture; assay type: cell-based; conditions: Zika virus, Huh7.5, 48 h, read-out: ZIKV-R2A replication (fold DMSO) Mean
[3] = read-out: DENV-R2A replication (fold DMSO) Mean, deconvolution screen, singletons, 50 µM, Huh7.5, 2 days postinfection
[4] = 6A1HI analogues, test concentration = 50 µM, Huh7.5 cells
[5] = Table S3, NPP3C analogues, 50 µM, Huh7.5
[6] = read-out: DENV-R2A replication (Fold DMSO), 6A1HI analogues, test concentration = 50 µM, Huh7.5 cells
[7] = read-out: DENV-R2A replication (fold DMSO), Table 2, 6A1HI analogues, 50 μM, Huh7.5, 2 days postinfection
[8] = Table 1, NPP3C analogues, 50 μM, Huh7.5, 2 days
[9] = read-out: DENV-R2A replication (fold DMSO), Table 1, NPP3C analogues, 50 μM, Huh7.5, 2 days postinfection

SMILES | Cell viability (fold DMSO) Mean (Huh7.5 cells; 50 µM) [fold DMSO] | activity at 50 µM [1, 3] [%] | activity at 50 µM [2] [%] | also measured
O=C1CCC(c2ccccc2)=NN1 [Compound 7L-571S, O=C1CCC(=NN1)c2ccccc2] | 0.99 | 107 | 124 | –
Clc1ncc(CN2CCCCC2)s1 [Compound 8N-010, Clc1ncc(CN2CCCCC2)s1] | 0.95 | 101 | 111 | –
Nc1ccc(Cl)nn1 [PS-5236, Nc1ccc(Cl)nn1] | 1.18 | 108 | 108 | –
c1ccn(-c2cnccn2)c1 [Compound 6N-039, c1ccn(c1)c2cnccn2] | 0.93 | 95 | 99 | –
NCc1ccc2cn[nH]c2c1 [Compound 6] | – | – | – | Cell viability (Fold DMSO) (Huh7.5 cells; [4]): 0.76 Fold DMSO; Cell viability (Fold DMSO) (Huh7.5 cells; Table 2, 6A1HI analogues, 50 μM, Huh7.5, 2 days): 0.76 fold DMSO; Cell viability (Fold DMSO) (Huh7.5 cells; [5]): 0.77 Fold DMSO; activity at 50 µM [1, 6]: 96%; activity at 50 µM ([1]; read-out: DENV-R2A replication (Fold DMSO), Table S3, NPP3C analogues, 50 µM, Huh7.5, 2 days postinfection): 55%; activity at 50 µM [1, 7]: 96%
Cn1cncc1C(=O)O [AS-5483, Cn1cncc1C(=O)O] | 1.12 | 99 | 99 | –
O=C(NNc1ccccc1)c1ccncc1 [Compound 54] | – | – | – | Cell viability (Fold DMSO) (Huh7.5 cells; [4]): 0.95 Fold DMSO; Cell viability (Fold DMSO) (Huh7.5 cells; [8]): 0.67 fold DMSO; Cell viability (Fold DMSO) (Huh7.5 cells; [5]): 0.67 Fold DMSO; activity at 50 µM [1, 6]: 106%; activity at 50 µM [1, 9]: 37%; antiviral activity against DENV-R2A (SAR, in words) [1]: retains little activity, if any
OCc1cc2cc(Br)ccc2[nH]1 [GA-0936, OCc1cc2cc(Br)ccc2[nH]1] | 0.83 | 13 | 63 | –
Cc1onc(-c2ccccc2)c1N [PS-4715, Cc1onc(c1N)c2ccccc2] | 1.05 | 88 | 113 | –
Cc1cc(O)cc(C)c1CO [DK-0713, Cc1cc(O)cc(C)c1CO] | 1.04 | 96 | 93 | –
Cc1ccc(C2CNCCN2)cc1 (stereo not drawn) [FS-3294, Cc1ccc(cc1)C2CNCCN2] | 1.08 | 74 | 96 | –
Cc1ccc(N2CCNC2=O)c(C)c1 [FA-0890, Cc1ccc(N2CCNC2=O)c(C)c1] | 1.08 | 99 | 112 | –
O=C1CCNc2c(F)cccc21 [PS-6636, Fc1cccc2C(=O)CCNc12] | 1.14 | 87 | 86 | –
Cc1cnn2c(C3CC3)ccnc12 [Compound 7T-0305, Cc1cnn2c(ccnc12)C3CC3] | 1.06 | 108 | 111 | –
N#CC(Cc1cccnc1)C(=O)Nc1ccccc1 (stereo not drawn) [Compound 68] | – | – | – | Cell viability (Fold DMSO) (Huh7.5 cells; [4]): 1.03 Fold DMSO; Cell viability (Fold DMSO) (Huh7.5 cells; [5]): 0.93 Fold DMSO; DENV-R2A replication (Fold DMSO) [1, 4]: 1.02 Fold DMSO; DENV-R2A replication (Fold DMSO) ([1]; Table S3, NPP3C analogues, 50 µM, Huh7.5, 2 days postinfection): 1.79 Fold DMSO
Nc1cccc(Cl)c1Cl [PS-4077, Nc1cccc(Cl)c1Cl] | 0.97 | 96 | 120 | –
O=C(Nc1ccccc1)N1CCNCC1 [Compound 7] | – | – | – | activity at 50 µM [1, 6]: 105%; activity at 50 µM [1, 9]: 82%; activity at 50 µM [1, 7]: 105%
c1ccc(NCc2cccnc2)cc1 [Compound 63] | – | – | – | activity at 50 µM [1, 6]: 81%; activity at 50 µM [1, 9]: 138%; antiviral activity against DENV-R2A (SAR, in words) [1]: retains little activity, if any
Nc1cncnc1 [SS-6051, Nc1cncnc1] | 0.96 | 104 | 105 | –
O=C(Nc1ccccc1Cl)c1cccnc1 [Compound 29] | – | – | – | Cell viability (Fold DMSO) (Huh7.5 cells; [4]): 0.96 Fold DMSO; Cell viability (Fold DMSO) (Huh7.5 cells; [8]): 0.95 fold DMSO; Cell viability (Fold DMSO) (Huh7.5 cells; [5]): 0.95 Fold DMSO; activity at 50 µM [1, 6]: 55%; activity at 50 µM [1, 9]: 99%
